Data from patent US9061984B2 (University of Louisville Research Foundation, Inc., priority 2008, dated 2015).
Converted amounts (≈) assume the structure as drawn. Like-named read-outs stand apart in the source and are kept apart here.

How the values were obtained:
3T3 cells = assay: Cell growth inhibition bioassay (sulforhodamine B); format: cell-based, mouse; details: Mus musculus, NIH3T3; 48 h, SRB; read-out: GI50 in indicated cell line: 3T3
Protocol: (§1) The cytotoxicity of compounds was assayed as follows. […] Appropriate solvent controls were tested for comparison. The percent inhibition of cell growth relative to the control was evaluated colorimetrically using a sulforhodamine B dye by comparison to the control. The calorimetric procedure followed that published in Skehan et al., J. Nat. Cancer Inst., […], pp. 1107-1112 (1990) and Boyd & Paull, Drug Dev. Res., Vol. 34, pp. 91-109 (1995). […] The cell lines are: 3T3 cells are BALB/3T3 clone A31 embryonic mouse fibroblast cells; H460 cells are human large cell lung cancer cells; DU145 cells are human prostate carcinoma cells; MCF-7 cells are human breast adenocarcinoma cells; M-14 cells are human melanoma cells; HT-29 cells are human colon adenocarcinoma cells; PC3 cells are human prostate adenocarcinoma cells; K562 cells are human chronic myelogenous leukemia cells; and VERO cells are African Green Monkey kidney epithelial cells.

DU145 cells = assay: Cell growth inhibition bioassay (sulforhodamine B); format: cell-based, human; details: Homo sapiens, DU-145; 48 h, SRB; read-out: GI50 in indicated cell line: DU145
Protocol: as §1

H460 cells = assay: Cell growth inhibition bioassay (sulforhodamine B); format: cell-based, human; details: Homo sapiens, NCI-H460; 48 h, SRB; read-out: GI50 in indicated cell line: H460
Protocol: as §1

HT-29 cells = assay: Cell growth inhibition bioassay (sulforhodamine B); format: cell-based, human; details: Homo sapiens, HT-29; 48 h, SRB; read-out: GI50 in indicated cell line: HT-29
Protocol: as §1

K562 cells = assay: Cell growth inhibition bioassay (sulforhodamine B); format: cell-based, human; details: Homo sapiens, K562; 48 h, SRB; read-out: GI50 in indicated cell line: K562
Protocol: as §1

M-14 cells = assay: Cell growth inhibition bioassay (sulforhodamine B); format: cell-based, human; details: Homo sapiens, M14; 48 h, SRB; read-out: GI50 in indicated cell line: M-14
Protocol: as §1

MCF-7 cells = assay: Cell growth inhibition bioassay (sulforhodamine B); format: cell-based, human; details: Homo sapiens, MCF7; 48 h, SRB; read-out: GI50 in indicated cell line: MCF-7
Protocol: as §1

VERO cells = assay: Cell growth inhibition bioassay (sulforhodamine B); format: cell-based, African Green Monkey; details: Chlorocebus sabaeus, Vero; 48 h, SRB; read-out: GI50 in indicated cell line: VERO
Protocol: as §1

[1] = tested on: Trypanosoma cruzi (Tulahuen C4); assay: In vitro anti-T. cruzi activity (β-galactosidase CPRG colorimetric assay in VERO monolayer); format: cell-based; details: for Selectivity Index Lab B: IC50, VERO/IC50, T. cruzi; for IC50: Trypanosoma cruzi, TULAHUEN, Vero
M. tuberculosis H37Rv = assay: Conventional aerobic (MABA) culture assay, luminescence MIC; format: cell-based, Mycobacterium tuberculosis; details: for MIC: Mycobacterium tuberculosis, 168 h, aerobic, 7 days, H37Rv; for Selectivity Index H37Rv: VERO vs MABA MIC
[2] = Toxicity to peritoneal macrophages (Trypan Blue count); format: cell-based, BALB/C mouse; details: BALB/C, mouse, Cytotoxicity Macrophages IC50
[3] = tested on: axenic amastigotes of L. amazonensis (strain MHOM/BR/76/LTB-012); details: Table 8b
[4] = Cytotoxicity VERO cell (Table 6); details: African green monkey, VERO cells
[5] = tested on: axenic amastigotes of L. amazonensis (strain MHOM/BR/76/LTB-012); assay: microbe, parasite or virus in culture; details: Leishmania amazonensis, read-out: L. amazonensis IC50
[6] = Cytotoxicity on VERO cells (MTT), anti-T. cruzi study; details: African green monkey, VERO cells, Cytotoxicity VERO Lab B, Lab B
L. amazonensis = details: intralesional, compounds 5 mg/kg/day, Glucantime 33 mg Sb(v)/kg/day; for Mean lesion wt (mg) (±SD): BALB/c mice n=10; for % Variation of lesion wt / % reduction of parasite burden in the lesion: vs control
L. braziliensis PER006 = assay: Activity against macrophages infected with Leishmania amastigotes; details: Leishmania braziliensis, Macrophage, read-out: IC50 L. braziliensis PER006
L. peruviana LCA08 = assay: as above; details: Leishmania peruviana, Macrophage, read-out: IC50 L. peruviana LCA08
[7] = Lab A, read-out: T. cruzi IC50 Lab A
[8] = Lab B, read-out: T. cruzi IC50 Lab B

## Oc1ccc(/C=N\Nc2ncnc3sc4c(c23)CCCC4)cc1 [II-09]
3T3 cells
  GI50: 2.1 µg/mL (≈ 6.47 µM)
DU145 cells
  GI50: 6.8 µg/mL (≈ 21 µM)
H460 cells
  GI50: 4.8 µg/mL (≈ 14.8 µM)
HT-29 cells
  GI50: 6.3 µg/mL (≈ 19.4 µM)
K562 cells
  GI50: 5.1 µg/mL (≈ 15.7 µM)
M-14 cells
  GI50: 5.6 µg/mL (≈ 17.3 µM)
MCF-7 cells
  GI50: 5.5 µg/mL (≈ 17 µM)
VERO cells
  GI50: 6.8 µg/mL (≈ 21 µM)
[1]; Lab B
  Selectivity Index Lab B: 1.1
[1]; [7]
  IC50: 2.6 µg/mL (≈ 8.01 µM)
[1]; [8]
  IC50: 3.7 µg/mL (≈ 11.4 µM)
M. tuberculosis H37Rv
  MIC: 23.4 µg/mL (≈ 72.1 µM)
  Selectivity Index H37Rv: 0.6
[2]
  IC50 at 48 h: 57.8 µM
[3]
  Selectivity Index: 4.3
[4]
  IC50: 14.6 µg/mL (≈ 45 µM)
[5]
  IC50: 13.5 µM
[6]
  IC50: 4 µg/mL (≈ 12.3 µM)

## Clc1ccccc1/C=N\Nc1ncnc2sc3c(c12)CCCC3 [II-29]
3T3 cells
  GI50: 30.2 µg/mL (≈ 88.1 µM)
DU145 cells
  GI50: 26.7 µg/mL (≈ 77.9 µM)
H460 cells
  GI50: 21.6 µg/mL (≈ 63 µM)
HT-29 cells
  GI50: 19.4 µg/mL (≈ 56.6 µM)
K562 cells
  GI50: 6.8 µg/mL (≈ 19.8 µM)
M-14 cells
  GI50: > 62.5 µg/mL
MCF-7 cells
  GI50: 7.5 µg/mL (≈ 21.9 µM)
VERO cells
  GI50: 9.9 µg/mL (≈ 28.9 µM)
[1]; Lab B
  Selectivity Index Lab B: 0.7
[1]; [8]
  IC50: 7.3 µg/mL (≈ 21.3 µM)
M. tuberculosis H37Rv
  MIC: 42.6 µg/mL (≈ 124 µM)
  Selectivity Index H37Rv: 0.7
[2]
  IC50 at 48 h: 3.8 µM
[3]
  Selectivity Index: 5.0
[4]
  IC50: 29.3 µg/mL (≈ 85.5 µM)
[5]
  IC50: 0.8 µM
[6]
  IC50: 5 µg/mL (≈ 14.6 µM)

## COc1cccc(/C=N\Nc2ncnc3sc4c(c23)CCCC4)c1 [II-11]
3T3 cells
  GI50: 6 µg/mL (≈ 17.7 µM)
DU145 cells
  GI50: 6 µg/mL (≈ 17.7 µM)
H460 cells
  GI50: 5.5 µg/mL (≈ 16.3 µM)
HT-29 cells
  GI50: 2.5 µg/mL (≈ 7.39 µM)
K562 cells
  GI50: 5.3 µg/mL (≈ 15.7 µM)
M-14 cells
  GI50: 48.4 µg/mL (≈ 143 µM)
MCF-7 cells
  GI50: 5 µg/mL (≈ 14.8 µM)
VERO cells
  GI50: 6.2 µg/mL (≈ 18.3 µM)
[1]; Lab B
  Selectivity Index Lab B: 0.9
[1]; [7]
  IC50: 1.5 µg/mL (≈ 4.43 µM)
[1]; [8]
  IC50: 5.7 µg/mL (≈ 16.8 µM)
M. tuberculosis H37Rv
  MIC: 40.4 µg/mL (≈ 119 µM)
  Selectivity Index H37Rv: 0.6
[2]
  IC50 at 48 h: 5.5 µM
[3]
  Selectivity Index: 0.5
[4]
  IC50: 22.7 µg/mL (≈ 67.1 µM)
[5]
  IC50: 12.2 µM
[6]
  IC50: 5 µg/mL (≈ 14.8 µM)

## C(=N/Nc1ncnc2sc3c(c12)CCCC3)/c1ccc[nH]1 [II-19]
3T3 cells
  GI50: 0.7 µg/mL (≈ 2.35 µM)
DU145 cells
  GI50: 1.4 µg/mL (≈ 4.71 µM)
H460 cells
  GI50: 0.5 µg/mL (≈ 1.68 µM)
HT-29 cells
  GI50: 1.1 µg/mL (≈ 3.7 µM)
K562 cells
  GI50: 0.6 µg/mL (≈ 2.02 µM)
M-14 cells
  GI50: 0.7 µg/mL (≈ 2.35 µM)
MCF-7 cells
  GI50: 0.1 µg/mL (≈ 0.336 µM)
VERO cells
  GI50: 0.6 µg/mL (≈ 2.02 µM)
[1]; Lab B
  Selectivity Index Lab B: 0.1
[1]; [7]
  IC50: 0.6 µg/mL (≈ 2.02 µM)
[1]; [8]
  IC50: 6.8 µg/mL (≈ 22.9 µM)
M. tuberculosis H37Rv
  MIC: 6.2 µg/mL (≈ 20.8 µM)
  Selectivity Index H37Rv: 0.7
[2]
  IC50 at 48 h: 2.9 µM
[3]
  Selectivity Index: 1.0
[4]
  IC50: 4 µg/mL (≈ 13.5 µM)
[5]
  IC50: 3 µM
[6]
  IC50: 1 µg/mL (≈ 3.36 µM)

## CCc1ccc(/C=N\Nc2ncnc3sc4c(c23)CCCC4)cc1 [II-06]
3T3 cells
  GI50: 12.1 µg/mL (≈ 36 µM)
DU145 cells
  GI50: 19.8 µg/mL (≈ 58.8 µM)
H460 cells
  GI50: 9.5 µg/mL (≈ 28.2 µM)
HT-29 cells
  GI50: 10.8 µg/mL (≈ 32.1 µM)
K562 cells
  GI50: 3.7 µg/mL (≈ 11 µM)
M-14 cells
  GI50: 64 µg/mL (≈ 190 µM)
MCF-7 cells
  GI50: 6.2 µg/mL (≈ 18.4 µM)
VERO cells
  GI50: 6.6 µg/mL (≈ 19.6 µM)
M. tuberculosis H37Rv
  MIC: > 100 µg/mL
[2]
  IC50 at 48 h: 50.9 µM
[3]
  Selectivity Index: 9.6
L. amazonensis; after 4 weeks treatment
  Mean lesion size (mm): 3.0 mm
  Mean parasite quantification (per 10^6) in lesion per mg (±SD): 1.19 (±0.27) amastigotes (×10^6)/mg
  Mean lesion wt (mg) (±SD): 70.9 (±9.9) mg
  % Variation of lesion wt: −17%
  % reduction of parasite burden in the lesion: 30%
L. amazonensis; after 7 weeks treatment
  Mean lesion size (mm): 4.7 mm
  Mean parasite quantification (per 10^6) in lesion per mg (±SD): 1.46 (±0.30) amastigotes (×10^6)/mg
  Mean lesion wt (mg) (±SD): 78.4 (±1.6) mg
  % Variation of lesion wt: 12%
  % reduction of parasite burden in the lesion: 2%
[5]
  IC50: 5.3 µM
[6]
  IC50: 4 µg/mL (≈ 11.9 µM)
L. braziliensis PER006
  IC50: 3.5 µg/mL (≈ 10.4 µM)
L. peruviana LCA08
  IC50: 3.2 µg/mL (≈ 9.51 µM)

## Brc1ccc(/C=N\Nc2ncnc3sc4c(c23)CCCC4)cc1 [II-30]
3T3 cells
  GI50: 6.8 µg/mL (≈ 17.6 µM)
DU145 cells
  GI50: 5.6 µg/mL (≈ 14.5 µM)
H460 cells
  GI50: 4.1 µg/mL (≈ 10.6 µM)
HT-29 cells
  GI50: 4.8 µg/mL (≈ 12.4 µM)
K562 cells
  GI50: 2.2 µg/mL (≈ 5.68 µM)
M-14 cells
  GI50: 13 µg/mL (≈ 33.6 µM)
MCF-7 cells
  GI50: 2.3 µg/mL (≈ 5.94 µM)
VERO cells
  GI50: 2.8 µg/mL (≈ 7.23 µM)
[1]; Lab B
  Selectivity Index Lab B: 0.8
[1]; [7]
  IC50: 1.1 µg/mL (≈ 2.84 µM)
[1]; [8]
  IC50: 7.9 µg/mL (≈ 20.4 µM)
M. tuberculosis H37Rv
  MIC: > 100 µg/mL
[2]
  IC50 at 48 h: 3 µM
[3]
  Selectivity Index: 8.8
[5]
  IC50: 0.3 µM
[6]
  IC50: 6 µg/mL (≈ 15.5 µM)
L. braziliensis PER006
  IC50: > 0.5 µg/mL
L. peruviana LCA08
  IC50: > 0.5 µg/mL
